Data set [1] is described as follows: Cytotoxicity against Vero cells (MTT assay). Format: cell-based. To be noted: African green monkey. The method, then:
We prepared the stock solutions of the tested compounds (10 mg/mL) in DMSO (Sigma, St. Louis, MO, USA). For the MTT assay and further studies of anti-HSV-1 activity, we diluted the stock solutions with DMEM so that the final concentration of DMSO was 0.5%.
We used MTT assay to determine the cytotoxic effect of the tested compounds against Vero cells. We performed the MTT assay as previously described.
In general terms: Tetrazolium assays rely on reduction of a dye to a coloured formazan, in cell work by metabolically active cells.

In data set [2] the test system is HSV-1. The data set is described as follows: Virucidal activity, CPE inhibition assay (HSV-1 pretreated with compounds). Format: cell-based, HSV-1 strain L2. To be noted: for IC50: Human alphaherpesvirus 1, virus pretreated with compound (virucidal), CPE assay, Vero cells, 100 TCID50/mL; for SI: ratio of CC50 to IC50, virucidal scheme. Here is the method:
The antiviral activity of polyphenols from M. amurensis against HSV-1 was assessed using the cytopathic effect inhibition (CPE) assay. To study the inhibitory effect of polyphenolic compounds directly on the HSV-1 virus (direct virucidal activity), the monolayer of Vero cells grown on 96-well plates (1 × 10^4 cells/well) was infected with the virus (100 TCD50/mL), pretreated with different concentrations of polyphenolic compounds.
(§1) The HSV-1 strain L2 obtained from N.F. Gamaleya Federal Research Centre for Epidemiology and Microbiology (Moscow, Russia) was grown in Vero cells as previously described.
(§2) We determined the direct inhibitory effect of polyphenolic compounds from M. amurensis heartwood on HSV-1 (virucidal effect). We mixed the virus at an infectious dose (100 TCID50/mL) with polyphenolic compounds (from 0.1 to 100 µg/mL) at a ratio of 1:1 (v/v) and incubated for an hour at 37 °C. Then, we infected the monolayer of Vero cells grown on 96-well plates (1 × 10^4 cells/well) with HSV-1 pretreated with the studied compounds. After 1 h adsorption at 37 °C, the cells were washed with phosphate-buffered saline (PBS) and overlaid by the maintenance medium with 1% FBS. The plates were incubated for 72 h at 37 °C in a CO2-incubator. The cytopathic effect (CPE) inhibition assay and real-time reverse transcription-PCR (RT-PCR) assay were used to evaluate virucidal effect of the tested compounds.
We previously described this method in detail in [22]. We performed the MTT assay to evaluate the antiviral activity of polyphenolic compounds. The viral inhibition rate (IR, %) was calculated according to Equation (1):(1) IR, %=Atv−Acv/Acd−Acv×100, where Atv is the absorbance of cells infected with HSV-1 pretreated with the studied compounds,
We calculated the selectivity index (SI) as the ratio of CC50 to IC50. Experiments were repeated three times.

The subject of data set [3] is 6-OHDA-treated Neuro-2a cells. The data set is described as follows: 6-OHDA-induced neurotoxicity model, cell viability test (MTT). To be noted: compounds at 10, 1, 0.1 µM; 6-OHDA 100 µM. Format: cell-based, murine. The method, then: Neuro-2a cells were incubated with the studied polyphenolic compounds for 1 h. Then, 100 µM of 6-hydroxydopamine 6-OHDA were added. We determined the percentage of living Neuro-2a cells after treatment with 6-OHDA (Figure 4a–d).
Figure 4 The effect of polyphenolic compounds isolated from M. amurensis heartwood on the viability of Neuro-2a cells treated with 6-OHDA (100 μM) (a–d). The viability of Neuro-2a cells treated with various compounds and 6-OHDA was measured by the MTT assay. Polyphenolic compounds isolated from M. amurensis heartwood were used at concentrations 10, 1, 0.1 μM. The data are presented as means ± SEM of three independent replicates. (*) indicate p < 0.05 versus 6-OHDA-treated cells.
After 24 h of adhesion, Neuro-2a cells (5 × 10^4 cells/mL) were treated with polyphenolic compounds at concentrations of 0.1, 1 and 10 μM for 1 h. Then, 100 µM of 6-OHDA or 1 mM of PQ (Sigma-Aldrich, St. Louis, MO, USA) were added. Cells incubated without inductors or with inductors were used as positive and negative control, respectively. Cell viability was measured after 24 h using the MTT assay.

The test system of data set [4] is HSV-1. As to the kind of experiment: Virucidal activity, RT-PCR assay (HSV-1 pretreated with compounds). Format: cell-based, HSV-1 strain L2. To be noted: for Ct: 72 h; for −ΔCt: vs virus control; for activity at 0.1 µg/mL / activity at 1 µg/mL / activity at 10 µg/mL / log reduction at 0.1 µg/mL / log reduction at 1 µg/mL / log reduction at 10 µg/mL: Human alphaherpesvirus 1, 72 h; for activity at 0.1 µg/mL / activity at 1 µg/mL / activity at 10 µg/mL: read-out: 2^−ΔCt; for log reduction at 0.1 µg/mL / log reduction at 1 µg/mL / log reduction at 10 µg/mL: read-out: log10. Here is the method: Vero cells grown on 96-well plates were infected with the virus (100 TCID50/mL), pretreated with polyphenolic compounds at concentrations 0.1, 1 and 10 μg/mL. After 72 h of cell incubation, viral DNA was extracted from the supernatants, and the relative level of HSV-1 DNA was determined using RT-PCR. The effect of polyphenols on the relative level of viral DNA was assessed using the 2^−∆Ct method and reported as fold reduction compared to virus control.
as §1, §2
We performed the RT-PCR assay as we previously described in detail in [22]. Briefly, HSV-1 DNA was extracted after incubation from cell supernatants by using the DNA-sorb-AM (K1-12-100-CE) nucleic acid extraction kit (AmpliSens®, Moscow, Russia) according to the manufacturer′s instructions. We treated the supernatants with a lysis solution that contained guanidine chloride (chaotropic agent) in the presence of sorbent (silica particles). As the elution solution was added, the DNA was […] silica particles and separated from the sorbent particles by centrifugation.
We detected the DNA of HSV-1 in the obtained samples using the AmpliSens® HSV I, II-FRT-100F PCR kit (AmpliSens®, Moscow, Russia) on a real-time PCR instrument Rotor-Gene Q (Qiagen, Hilden, Nordrhein-Westfalen, Germany) according to the manufacturer′s instructions. The PCR reaction conditions were the following: initial denaturation at 95 °C for 15 min; then 5 cycles at 95 °C for 5 s, at 60 °C for 20 s, at 72 °C for 15 s; then 40 cycles at 95 °C for 5 s, at 60 °C for 20 s, and at 72 °C for 15 s. A negative sample was used as the amplification control for each run. The threshold cycle number Ct, was measured as the PCR cycle, where the amount of the amplified target reached the threshold value; the Ct values ≥ 37 indicated the absence of the HSV-1 DNA in the samples. We assessed the anti-HSV-1 activity of the studied compounds by the reduction in the viral DNA levels using the 2^−ΔCt method according to Equation (2):(2) ΔCt=Ctcv−Cttv where Ct is the threshold cycle number measured as the PCR cycle, where the amount of the amplified target reached the threshold value, […]

Data set [5] deals with 6-OHDA-treated Neuro-2a cells. As to the kind of experiment: ROS analysis in 6-OHDA-treated cells (H2DCF-DA). Format: cell-based, murine. To be noted: compound 1 µM; 6-OHDA 120 µM. The method, then:
We studied the effect of polyphenolic compounds set on ROS levels in 6-OHDA-treated Neuro-2a cells (Figure 5a–d).
Figure 5 The effect of polyphenolic compounds isolated from M. amurensis heartwood on ROS levels in Neuro-2a cells treated with 6-OHDA (120 μM) (a–d). Polyphenolic compounds isolated from M. amurensis heartwood were used at concentrations 10, 1, 0.1 μM. The data are presented as means ± SEM of three independent replicates.
After 24 h of adhesion, Neuro-2a cells (5 × 10^4 cells/mL) were incubated with polyphenolic compounds at concentrations of 0.1, 1, and 10 µM for 1 h. Then, 120 µM of 6-OHDA or 1 mM of PQ were added to each well, and cells were incubated for 1 h. To study the ROS formation, 20 µL of 2,7-dichlorodihydrofluorescein diacetate solution (H2DCF-DA, Sigma-Aldrich, St. Louis, MO, USA) were added to each well, so that the final concentration was 10 µM. Then, the microplate was incubated for 30 min at 37 °C.

We go through 3 compounds from article PMC11050087, “Polyphenols from Maackia amurensis Heartwood Protect Neuronal Cells from Oxidative Stress and Prevent Herpetic Infection” (International Journal of Molecular Sciences, 2024).

Where “and” joins values, the source holds several entries; their conditions need not be identical. Identical values can stand only once.

Broadly, the CC50 is the concentration giving 50% cytotoxicity. For orientation: IC50 means the concentration that inhibits the measured activity by half. Take `Oc1ccc2c(c1)OC[C@H]1c3cc4c(cc3O[C@@H]21)OCO4` [Compound 4, maackiain]: the CC50 in data set [1] was 152 µg/mL and 536 µM. In the data set with HSV-1 [2], the IC50 is 28.3 µg/mL and 99.6 µM; the SI was 5.4 and 5.4 ± 0.7. Further, the “effect on viability of 6-OHDA-treated Neuro-2a cells (in words)” value in data set [3] is given as “weak effect on cell viability”. Besides, in the data set on HSV-1 [4] (0.1 µg/mL), the Ct worked out at 18.1 ± 2.2 and the “−ΔCt” value came to 0. Also, in the data set with HSV-1 [4] (1 µg/mL), the Ct was found to be 19.0 ± 2.1 and the “−ΔCt” value is −0.9 ± 0.1. Moreover, in the data set on HSV-1 [4] (10 µg/mL), the “anti-HSV-1 activity by RT-PCR (in words)” value is listed as “moderate anti-HSV-1 activity”, the Ct is 20.7 ± 2.3 and the “−ΔCt” value was −2.6 ± 0.3. In addition, in the data set with HSV-1 [4], the activity at 0.1 µg/mL amounted to 100%, the activity at 1 µg/mL was 53.6 ± 6.4%, the activity at 10 µg/mL was determined as 16.5 ± 2.1% and the log reduction at 0.1 µg/mL stood at 0. For the same compound, in the data set with HSV-1 [4], the log reduction at 1 µg/mL came out at 0.3 ± 0.04 and the log reduction at 10 µg/mL stood at 0.8 ± 0.1.
On to `COc1ccc([C@H]2COc3cc(O)ccc3[C@@H]2c2c(O)cc(O)cc2/C=C/c2ccc(O)c(O)c2)c(O)c1` [Compound 14, maackiapicevestitol], for which the CC50 in data set [1] was 162 µg/mL and 316 µM. Further, in the data set with HSV-1 [2], the IC50 is 8.6 µg/mL and 16.7 µM; the SI turned out to be 18.9 ± 2.8. Besides, in the data set on HSV-1 [4] (0.1 µg/mL), the Ct worked out at 18.4 ± 2.4 and the “−ΔCt” value is reported as −0.30 ± 0.03. Moreover, in the data set on HSV-1 [4] (1 µg/mL), the Ct was found to be 19.2 ± 2.5 and the “−ΔCt” value was −1.1 ± 0.1. For the same compound, in the data set on HSV-1 [4] (10 µg/mL), the “anti-HSV-1 activity by RT-PCR (in words)” value was “significantly reduced the level of viral DNA”, the Ct is 27.1 ± 3.8 and the “−ΔCt” value was −9.0 ± 1.2. In the data set with HSV-1 [4], the activity at 0.1 µg/mL was 81.2 ± 11%, the activity at 1 µg/mL is 46.6 ± 5.6%, the activity at 10 µg/mL amounted to 0.195 ± 0.02% and the log reduction at 0.1 µg/mL came to 0.09 ± 0.01. In the data set with HSV-1 [4], the log reduction at 1 µg/mL was found to be 0.33 ± 0.04 and the log reduction at 10 µg/mL came to 2.7 ± 0.3.
As for `COc1ccc(-c2coc3c4c(ccc3c2=O)O[C@@H](c2cc(O)cc(O)c2)[C@H](c2ccc(O)c(O)c2)O4)cc1` [Compound 10, maackiazin], the CC50 in data set [1] is 156 µg/mL and 297 µM. Besides, the “reduction of ROS levels in 6-OHDA-treated Neuro-2a cells” value in data set [5] is given as 20%. Moreover, in the data set with HSV-1 [2], the IC50 was 6.6 µg/mL and 12.5 µM; the SI amounted to 23.7 ± 3.1. Moreover, in data set [3], the “effect on viability of 6-OHDA-treated Neuro-2a cells (in words)” value is reported as “weak effect on cell viability”. Further, in the data set with HSV-1 [4] (0.1 µg/mL), the Ct came out at 18.4 ± 2.4 and the “−ΔCt” value is recorded as −0.300 ± 0.03. In the data set with HSV-1 [4] (1 µg/mL), the Ct is recorded as 20.2 ± 2.6 and the “−ΔCt” value is given as −2.1 ± 0.3. In the data set on HSV-1 [4] (10 µg/mL), the “anti-HSV-1 activity by RT-PCR (in words)” value is recorded as “significantly reduced the level of viral DNA”, the Ct turned out to be 28.0 ± 3.9 and the “−ΔCt” value is recorded as −9.9 ± 1.1. In the data set with HSV-1 [4], the activity at 0.1 µg/mL is 81.2 ± 11%, the activity at 1 µg/mL is 23.3 ± 3%, the activity at 10 µg/mL came out at 0.105 ± 0.01% and the log reduction at 0.1 µg/mL came out at 0.09 ± 0.01. In the data set on HSV-1 [4], the log reduction at 1 µg/mL was determined as 0.6 ± 0.08 and the log reduction at 10 µg/mL came to 2.9 ± 0.4.
